Data taken from patent US8648099B2 (Hoffmann-La Roche Inc., priority 2011, dated 2014).

How the values were obtained:
ABCA1 protein = assay: Detection of upregulation of ABCA1 protein in cells (ApoA-I binding, high content imaging); assay type: cell-based; settings: THP-1 macrophage cells; for % increase of ABCA1 at 3 μM: compound at 3 μM, 24 hrs; for EC50: 24 hrs compound incubation, read-out: EC50 [μM] ABCA1 protein increasing efficacy
Description: The ability of compounds of the invention to increase the level of ABCA1 protein is determined in replicate cultures of THP-1 macrophage cells in 96-well microplates. Cells are plated at an initial density of 100,000 cells/well in 100 μl medium and differentiated to adherent macrophages with the addition of PMA (100 nM) for 68 hrs in 10% fetal bovine serum, 3 μl/L of b-mercaptoethanol, RPMI-1640 medium. Then, cells are incubated with RPMI-1640 medium containing 1% FCS, 25 μg/ml acetylated LDL, for 24 hours at 37° C. Following incubation with acetylated LDL, cells are washed twice with 50 μl PBS and incubated with 100 μl of RPMI-1640 medium containing the compound of interest solubilized in DMSO for an additional 24 hrs. The final DMSO concentration in presence of cells is maintained at 0.5%. ApoA-I binding assay using High Content Image Analysis is initiated by replacing with fresh medium, RPMI without Phenol Red, 0.2% BSA containing AlexaFluor®647 labeled ApoA-I for 2 h/37° C./5% CO2. Then, cells are fixed with 4% Formaldehyde in PBS (15 min, RT). Following Nuclei are stained with Hoechst solution (3 μM PBS) and Cytoplasm with Cell Mask Blue (2 μg/ml PBS), 15 min, RT. Finally the stained cells are fixed with a second round of formaldehyde treatment. Fixed stained cells are washed and kept in PBS at 4° C. and can be read immediately until one month after preparation.
The Alexa Fluor 647-labeled Apolipoprotein A-I (20 nM) was prepared as follows: Human recombinant Apolipoprotein A-I (ApoA-I) was exchanged to a buffer of 0.02 M NaHCO3 at pH 8.2 on an NAP desalting column (GE Healthcare) and brought to a concentration to 40 μM (1.13 mg/ml) by adjustment with the same buffer. The ApoA-I was fluorescently labeled by incubation with Alexa Fluor carboxylic acid succimidyl ester (Alexa Fluor 647, Invitrogen A-20006) at a 2:1 molar ratio (Alexa to ApoA-I) for 1 h under shaking at RT. The remaining unconjugated label was removed by buffer exchange to 0.02M NaHCO3 at pH 8.2.
Imaging and data collection were performed on an OPERA confocal microplate imaging reader using a 20× water immersion objective and UV360 or 405 laser to identify the cell nuclei and a 635 laser to identify the fluorescent ApoA-I. Eight fields of view are captured per well. Image capture and analysis was performed with the Acapella software. Background fluorescence detected in control wells without ApoA-I was subtracted.
Using XLfit3 program (ID Business Solutions Ltd. UK), the model 205 for Dose Response One Site is used to calculate the EC50 values. […] More particularly, the compounds of the present invention have EC50 values in a range of 0.1 μM to 3 μm.

human CB1 receptor = biological target: T1, human CB1 receptor (Homo sapiens, UniProt P21554); assay: CB1 receptor affinity ([3H]-CP-55,940 displacement, HEK cell membranes); assay type: binding; settings: displacement of [3H]-CP-55,940 at 10 μM; read-out: CB1 receptor affinity [% inhibition @ 10 μM]
T1 construct: expressed in transfected cells; host or cells: human embryonic kidney (HEK) cells, Semliki Forest Virus system, membrane preparations
T1 sequence (P21554 whole entry): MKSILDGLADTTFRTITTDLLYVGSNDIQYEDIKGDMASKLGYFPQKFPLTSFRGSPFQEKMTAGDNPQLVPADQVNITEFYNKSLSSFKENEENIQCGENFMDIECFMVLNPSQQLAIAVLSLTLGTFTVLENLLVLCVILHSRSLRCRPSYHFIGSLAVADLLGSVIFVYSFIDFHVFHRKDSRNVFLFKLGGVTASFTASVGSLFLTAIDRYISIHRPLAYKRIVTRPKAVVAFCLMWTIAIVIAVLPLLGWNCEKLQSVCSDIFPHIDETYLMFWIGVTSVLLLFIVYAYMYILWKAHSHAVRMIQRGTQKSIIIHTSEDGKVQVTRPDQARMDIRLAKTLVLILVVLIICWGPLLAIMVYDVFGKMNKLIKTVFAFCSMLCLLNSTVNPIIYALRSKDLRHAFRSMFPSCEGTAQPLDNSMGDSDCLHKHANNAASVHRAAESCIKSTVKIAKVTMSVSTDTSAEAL
Description: (§1) The affinity of the compounds of the invention for cannabinoid receptors was determined using membrane preparations of human embryonic kidney (HEK) cells in which the human CB1 receptor is transiently transfected using a Semliki Forest Virus system in conjunction with [3H]-CP-55,940 as radioligand. After incubation of freshly prepared cell membrane preparation with the [^3H]-ligand, with or without addition of compounds of the invention, separation of bound and free ligand was performed by filtration over glass fiber filters. Radioactivity on the filter was measured by scintillation counting.
(§2) The ability of the compounds to displace the radioligand [^3H]-CP-55,940 was measured at a concentration of 10 μM and values provided as [% inhibition @ 10 μM] both for the CB1 and CB2 receptor assay, The lower % inhibition is, the lower the likelihood of side effects based on CB1 or CB2 receptor inhibition is.

human CB2 receptor = biological target: T2, human CB2 receptor (Homo sapiens, UniProt P34972); assay: CB2 receptor affinity ([3H]-CP-55,940 displacement, HEK cell membranes); assay type: binding; settings: displacement of [3H]-CP-55,940 at 10 μM
T2 construct: expressed in transfected cells; host or cells: human embryonic kidney (HEK) cells, Semliki Forest Virus system, membrane preparations
T2 sequence (P34972 whole entry): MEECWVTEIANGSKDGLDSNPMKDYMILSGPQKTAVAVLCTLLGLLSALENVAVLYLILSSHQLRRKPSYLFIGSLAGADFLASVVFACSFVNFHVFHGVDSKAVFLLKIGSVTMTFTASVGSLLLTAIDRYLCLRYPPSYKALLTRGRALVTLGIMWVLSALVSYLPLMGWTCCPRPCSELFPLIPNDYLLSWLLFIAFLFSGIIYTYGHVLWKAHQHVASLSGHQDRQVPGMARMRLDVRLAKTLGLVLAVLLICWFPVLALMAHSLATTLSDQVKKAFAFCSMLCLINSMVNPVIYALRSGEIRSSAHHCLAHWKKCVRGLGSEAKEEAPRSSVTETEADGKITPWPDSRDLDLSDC
Description: as §1, with “cannabinoid CB2” for “cannabinoid”, “CB2” for “CB1”, “[^3H]-CP-55,940” for “[3H]-CP-55,940”
as §2

| inhibition at 10 µM (human CB1 receptor) [%] | inhibition at 10 µM (human CB2 receptor) [%] | SMILES | % increase of ABCA1 at 3 μM (ABCA1 protein) [%@ 3 μM] | EC50 (ABCA1 protein) [µM] |
| --- | --- | --- | --- | --- |
| 39 | -17 | O=C(NN1CCCC1)c1cnc(OCC(F)(F)F)c(C2CCCCC2)c1 [Example 21, 5-cyclohexyl-N-(pyrrolidin-1-yl)-6-(2,2,2-trifluoroethoxy)-3-pyridinecarboxamide] | >45 |  |
| 28 | -9 | CN(NC(=O)c1cnc(OCC(F)(F)F)c(C2CCCCC2)c1)c1ccc(Cl)nn1 [Example 22, N′-(6-chloropyridazin-3-yl)-5-cyclohexyl-N′-methyl-6-(2,2,2-trifluoroethoxy)-3-pyridinecarboxylic acid hydrazide] |  | 0.98 |
| 39 | 17 | COC[C@@H]1CCCN1NC(=O)c1cnc(OCC(F)(F)F)c(C2CCCCC2)c1 [Example 23, 5-cyclohexyl-N—((S)-2-methoxymethyl-pyrrolidin-1-yl)-6-(2,2,2-trifluoro-ethoxy)-3-pyridinecarboxamide] | >45 |  |
| 45 | -8 | O=C(NN1CCC(CCO)CC1)c1cnc(OCC(F)(F)F)c(-c2ccc(Cl)cc2)c1 [Example 24, 5-(4-chlorophenyl)-N-(4-(2-hydroxyethyl)piperidin-1-yl)-6-(2,2,2-trifluoroethoxy)-3-pyridinecarboxamide] | >45 |  |
| 14 | -18 | O=C(NN1CCN(CCO)CC1)c1cnc(OCC(F)(F)F)c(-c2ccc(Cl)cc2)c1 [Example 25, 5-(4-chlorophenyl)-N-(4-(2-hydroxyethyl)piperazin-1-yl)-6-(2,2,2-trifluoroethoxy)-3-pyridinecarboxamide] | >45 |  |
| 37 | -17 | O=C(NN1CCC(CO)CC1)c1cnc(OCC(F)(F)F)c(-c2ccc(Cl)cc2)c1 [Example 26, 5-(4-chlorophenyl)-N-(4-(hydroxymethyl)piperidin-1-yl)-6-(2,2,2-trifluoroethoxy)-3-pyridinecarboxamide] | >45 |  |
| 25 | -11 | CN1CCN(NC(=O)c2cnc(OCC(F)(F)F)c(-c3ccc(Cl)cc3)c2)CC1=O [Example 27, 5-(4-chlorophenyl)-N-(4-methyl-3-oxopiperazin-1-yl)-6-(2,2,2-trifluoroethoxy)-3-pyridinecarboxamide] |  | 2.39 |
| 46 | -9 | CN(CCCO)NC(=O)c1cnc(OCC(F)(F)F)c(-c2ccc(Cl)cc2)c1 [Example 28, 5-(4-chlorophenyl)-N′-(3-hydroxypropyl)-N′-methyl-6-(2,2,2-trifluoroethoxy)-3-pyridinecarboxylic acid hydrazide] | >45 |  |
| 44 | -10 | O=C(NN1CC(O)C1)c1cnc(OCC(F)(F)F)c(-c2ccc(Cl)cc2)c1 [Example 29, 5-(4-chlorophenyl)-N-(3-hydroxyazetidin-1-yl)-6-(2,2,2-trifluoroethoxy)-3-pyridinecarboxamide] | >45 |  |
| 24 | 13 | CN(NC(=O)c1cnc(OCC(F)(F)F)c(C2CC2)c1)c1ccccc1 [Example 30, 5-cyclopropyl-6-(2,2,2-trifluoro-ethoxy)-nicotinic acid N′-methyl-N′-phenyl-hydrazide] | >45 |  |
| -2 | -14 | O=C(NN1CCS(=O)(=O)CC1)c1cnc(OCC(F)(F)F)c(C2CC2)c1 [Example 31, 5-cyclopropyl-N-(1,1-dioxo-1λ6-thiomorpholin-4-yl)-6-(2,2,2-trifluoro-ethoxy)-nicotinamide] | >45 |  |
| 14 | -14 | O=C(NN1CCOCC1)c1cnc(OCC(F)(F)F)c(C2CC2)c1 [Example 32, 5-cyclopropyl-N-morpholin-4-yl-6-(2,2,2-trifluoro-ethoxy)-nicotinamide] |  | 1.77 |
| 21 | 3 | COC[C@@H]1CCCN1NC(=O)c1cnc(OCC(F)(F)F)c(C2CC2)c1 [Example 33, 5-cyclopropyl-N—((S)-2-methoxymethyl-pyrrolidin-1-yl)-6-(2,2,2-trifluoro-ethoxy)-nicotinamide] |  | 0.68 |
| 15 | 8 | CN(NC(=O)c1cnc(OCC(F)(F)F)c(C2CC2)c1)c1ccc(F)cc1 [Example 34, 5-cyclopropyl-6-(2,2,2-trifluoro-ethoxy)-nicotinic acid N′-(4-fluoro-phenyl)-N′-methyl-hydrazide] |  | 0.83 |
| 34 | 25 | CN(NC(=O)c1cnc(OCC(F)(F)F)c(C2CCOCC2)c1)c1ccccc1 [Example 35, 5-(tetrahydro-pyran-4-yl)-6-(2,2,2-trifluoro-ethoxy)-nicotinic acid N′-methyl-N′-phenyl-hydrazide] |  | 2.35 |
| 10 | -4 | N#Cc1ccc(-c2cc(C(=O)NN3CCC(O)CC3)cnc2OCC(F)(F)F)cc1 [Example 36, 5-(4-cyano-phenyl)-N-(4-hydroxy-piperidin-1-yl)-6-(2,2,2-trifluoro-ethoxy)-nicotinamide] |  | 1.86 |
| 47 | -8 | N#Cc1ccc(-c2cc(C(=O)NN3CCOCC3)cnc2OCC(F)(F)F)cc1 [Example 37, 5-(4-cyano-phenyl)-N-morpholin-4-yl-6-(2,2,2-trifluoro-ethoxy)-nicotinamide] |  | 1.32 |
| 37 | -6 | N#Cc1ccc(-c2cc(C(=O)NN3CCC(CCO)CC3)cnc2OCC(F)(F)F)cc1 [Example 38, 5-(4-cyano-phenyl)-N-[4-(2-hydroxy-ethyl)-piperidin-1-yl]-6-(2,2,2-trifluoro-ethoxy)-nicotinamide] |  | 0.15 |
| -3 | -5 | CC(C)(C)OC(=O)N1CCC(c2cc(C(=O)NN3CCC(CCO)CC3)cnc2OCC(F)(F)F)CC1 [Example 39, 5-[4-(2-hydroxy-ethyl)-piperidin-1-ylcarbamoyl]-2-(2,2,2-trifluoro-ethoxy)-3′,4′,5′,6′-tetrahydro-2′H-[3,4′]bipyridinyl-1′-carboxylic acid tert-butyl ester] |  | 1.8 |
| 50 | 3 | CN(NC(=O)c1cnc(OCC(F)(F)F)c(C2CCN(C(=O)OC(C)(C)C)CC2)c1)c1ccc(F)cc1 [Example 40, 5-[N′-(4-fluoro-phenyl)-N′-methyl-hydrazinocarbonyl]-2-(2,2,2-trifluoro-ethoxy)-3′,4′,5′,6′-tetrahydro-2′H-[3,4′]bipyridinyl-1′-carboxylic acid tert-butyl ester] |  | 0.68 |
